Test results from US8129106B2, “Sequence-specific detection of methylation in biomolecules” (priority 2004, dated 2012).
Where two headings read alike, the source gives them in different places.

Experiments:
M.HhaI [1] = molecular target: T1, M.HhaI (Haemophilus parahaemolyticus, UniProt P05102); assay: M.HhaI-catalysed coupling of biotinylated aziridine cofactors with duplex oligodeoxynucleotide I-II (anion exchange HPLC); format: biochemical, Haemophilus haemolyticus; details: for conversion of duplex I-II to coupling product (protein-DNA complex): cofactor 80 μM, duplex I-II 10 μM, M.HhaI 11 μM, 37° C., after 3 h (1), 1.5 h (2), 6.25 h (3)
T1 sequence (P05102 whole entry): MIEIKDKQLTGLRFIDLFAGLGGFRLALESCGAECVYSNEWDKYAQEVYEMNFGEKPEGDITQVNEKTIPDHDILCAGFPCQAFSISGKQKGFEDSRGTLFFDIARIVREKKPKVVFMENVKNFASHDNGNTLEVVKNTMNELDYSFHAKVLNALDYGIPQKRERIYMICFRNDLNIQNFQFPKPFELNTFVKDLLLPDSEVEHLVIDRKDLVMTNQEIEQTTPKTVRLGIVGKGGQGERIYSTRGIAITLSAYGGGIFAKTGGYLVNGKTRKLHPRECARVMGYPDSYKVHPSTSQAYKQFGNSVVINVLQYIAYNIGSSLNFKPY
Procedure: Solutions (400 μL) of aziridine cofactor 1, 2 or 3 (32 nmol, 80 μM), duplex oligodeoxynucleotide I-II (4 nmol, 10 μM) and M.HhaI (4.4 nmol, 11 μM) in buffer (10 mM Tris hydrochloride, pH 7.4, 50 mM sodium chloride, 0.05 mM ethylene-diaminetetraacetic acid and 2 mM β-mercaptoethanol) were incubated at 37° C. The progress of the coupling reactions was monitored by anion exchange HPLC (Poros 10 HQ, 10 μm, 4.6×10 mm, Applied Biosystems). Compounds were eluted with aqueous potassium chloride (0.2 M for 5 min, followed by linear gradients to 0.4 M in 5 min, to 0.6 M in 20 min and to 1 M in 5 min) in Tris hydrochloride buffer (10 mM, pH 7.6) at a flow of 4 mL/min. […] These new compounds are assigned to non-covalent protein-DNA complexes between M.HhaI and the coupling products I^1-II, I^2-II and I^3-II based on their UV absorption ratio at 260 nm and 280 nm.
The presence and functionality of biotin groups in I^1-II, I^2-II and I^3-II were verified by addition of streptavidin. Residual aziridine cofactors 1, 2 or 3 were first removed from the labelled duplexes I^1-II, I^2-II or I^3-II by gel filtration using NAP-5 columns (Amersham Biosciences, Freiburg, Germany) according to the instructions of the supplier. Afterwards, streptavidin (25 μg) was added to the solutions (25 μL, 0.25 nmol I^1-II, I^2-II or I^3-II) and incubation was performed at 37° C. for 30 min.

M.HhaI [2] = molecular target: T1, M.HhaI; assay: Methylation-sensitive biotinylation of linearized pUC19 plasmid DNA with M.HhaI (R.HhaI protection, streptavidin mobility shift); format: biochemical, Haemophilus haemolyticus; details: cofactor 80 μM, 37° C. for 2 h, non- vs CpG-methylated LpUC19
Procedure: The reaction with aziridine cofactor 1 and M.HhaI was used to specifically detect DNA methylation of plasmid DNA (FIG. 2). Experiments were performed with R.XmnI-linearized plasmid pUC19 DNA (LpUC19). Cytosine residues within the 5′-CG-3′ DNA sequences (CpG-motives) of LpUC19 were methylated using the DNA (cytosine-5)-methyltransferase M.SssI and the natural cofactor AdoMet. Non- and CpG-methylated LpUC19 were treated with biotinylated aziridine cofactor 1 and M.HhaI, which can only alkylate the first cytosine residue within the 5′-GCGC-3′ DNA sequence if this residue is not blocked by methylation of the inner CpG-motive. The different plasmids where then analyzed by treatment with the restriction endo-nuclease R.HhaI (5′-GCGC-3′ recognition sequence) or streptavidin (tight binding to the biotin group) leading to fragmentation, no reaction or an electrophoretic mobility shift (FIG. 2A). […]
Samples (10 μL) of unmodified (A.), methylated (B. or C.) or biotinylated (C.) LpUC19 plasmid DNA (200 ng) in buffer (10 mM Tris hydrochloride, pH 7.9, 10 mM magnesium chloride, 50 mM sodium chloride, 1 mM 1,4-dithiothreitol and 1 mg/mL bovine serum albumin) were incubated with R.HhaI (2 U) at 37° C. for 1 h. DNA fragmentation was analyzed by agarose gel electrophoresis (1% agarose gel). […]

M.SssI = molecular target: T2, M.SssI (Spiroplasma monobiae, UniProt P15840); assay: M.SssI-catalysed coupling of aziridine cofactors with duplex oligodeoxynucleotides (anion exchange HPLC); format: biochemical
T2 construct: made in house; host or cells: Escherichia coli
T2 sequence (P15840 whole entry): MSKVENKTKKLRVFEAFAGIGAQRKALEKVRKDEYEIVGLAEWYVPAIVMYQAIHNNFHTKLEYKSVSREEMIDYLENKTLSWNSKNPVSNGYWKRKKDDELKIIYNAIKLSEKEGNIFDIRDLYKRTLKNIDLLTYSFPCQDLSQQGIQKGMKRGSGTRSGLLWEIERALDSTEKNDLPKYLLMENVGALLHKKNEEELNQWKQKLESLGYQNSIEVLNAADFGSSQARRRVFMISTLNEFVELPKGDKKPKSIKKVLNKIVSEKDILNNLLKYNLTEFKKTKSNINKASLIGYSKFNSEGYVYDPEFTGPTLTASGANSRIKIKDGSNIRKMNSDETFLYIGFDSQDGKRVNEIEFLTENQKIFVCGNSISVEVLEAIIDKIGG
Procedure: M.SssI-mediated conversion of 6BAz was studied by using a duplex-oligodeoxynucleotide and purified DNA-methyl-transferase. After adjusting and optimizing the reaction conditions (pH and composition of the puffers, temperature, amount of M.SssI) 60% of a hemi-methylated duplex-oligodeoxynucleotide was labelled in a 2 h reaction. When unmethylated duplex-oligodeoxynucleotides were used, approximately 100% was labelled. These diverging results may be due to the presence of minor amounts of natural cofactor AdoMet in the enzyme preparation.
Solutions of hemi-methylated duplex oligodeoxynucleotide I-II (1 μM, I=5′-[…]-3′ (SEQ ID NO:1), II=5′-[…]-3′ with M=5-methyl-2′-deoxycytidine (SEQ ID NO:2)) or non-methylated duplex oligodeoxynucleotide I-III (1 μM, I=5′-[…]-3′ (SEQ ID NO:1), III=5′-[…]-3′ (SEQ ID NO:3)), aziridine cofactor 3 (100 μM) and M.SssI (2 μM) in buffer (10 mM Tris hydrochloride, pH 7.4, 50 mM sodium chloride, 10 mM ethylenediaminetetraacetic acid and 2 mM dithiothreitol) were incubated at 21° C. The progress of the coupling reactions was monitored by anion exchange HPLC (Poros 10 HQ, 10 μm, 4.6×100 mm, Applied Biosystems). Compounds were eluted with aqueous potassium chloride (0.2 M for 5 min, followed by linear gradients to 0.5 M in 5 min and to 1 M in 30 min) in Tris hydrochloride buffer (10 mM, pH 7.6) supplemented with sodium azide (1 mM) at a flow of 4 mL/min.

Substance | substrate for M.HhaI (M.HhaI [1]) | conversion of duplex I-II to coupling product (protein-DNA complex) (M.HhaI [1]) | labelling reaction of LpUC19 plasmid DNA with M.HhaI (M.HhaI [2]) | cofactor use by M.SssI (transfer onto DNA) (M.SssI) | hemi-methylated duplex-oligodeoxynucleotide labelled (M.SssI; M.SssI, 2 h reaction, optimized conditions) [%] | unmethylated duplex-oligodeoxynucleotide labelled (M.SssI; M.SssI, optimized conditions) | conversion of non-methylated duplex I-III to protein-DNA complexes with coupling product (M.SssI; duplex I-III 1 μM, cofactor 100 μM, M.SssI 2 μM, 21° C., 3 h incubation) | conversion of starting duplex I-II to product duplex I^3-II (M.SssI; hemi-methylated duplex I-II 1 μM, cofactor 100 μM, M.SssI 2 μM, 21° C., 3 h) | cofactor use by M.SssI (transfer onto DNA) (M.SssI; listed as 6BAz)
4-Amino-7-(5′-N-aziridinyl-5′-deoxy-β-D-ribofuranosyl)-5-[1″-(N″-biotinyl)-3″-aminoprop-1-ynyl]-7H-pyrrolo[2,3-d]pyrimidine [aziridine cofactor 2] | good substrates | almost complete conversion | – | – | – | – | – | – | –
4-Amino-7-(5′-N-aziridinyl-5′-deoxy-β-D-ribofuranosyl)-5-[1″-(N″-biotinyl)-3″-aminopropyl]-7H-pyrrolo[2,3-d]pyrimidine [aziridine cofactor 1] | good substrates | almost complete conversion | sequence-specific and blocked by CpG-methylation | – | – | – | – | – | –
5′-N-Aziridinyl-N6-[1″-(N″-biotinyl)-4″-aminobutyl]-5′-deoxyadenosine [aziridine cofactor 3] | good substrates | almost complete conversion | – | substrate for M.SssI | 60 | approximately 100% | almost complete conversion | about 60% | aziridin-cofactor for the DNA-MTase M.SssI
